Experimental data as given in PubChem BioAssay AID792 (PCMD, 2007).
Results filed as inconclusive are left out. Active and inactive are the calls of the source. No rule for the calls is given here.

Target: S. cerevisiae eIF2B mutant, luciferase reporter luminescence
Assay: potency on yeast eIF2B luminescence signal – S. cerevisiae, mutant, wild-type, growth, dose response (AID 792)
[1] = measured here: mutant yeast growth
[2] = S. cerevisiae wild-type, luminescence

Compound | IC50 | IC50 [1] | IC50 [2]
Cc1cccc2nc(CSc3nnc4ccccn34)cn12 | > 100 µM (inactive) | > 100 µM | 
CCOC(=O)Cc1csc(NC(=O)CCc2ccc(S(=O)(=O)N3CCOCC3)cc2)n1 | > 100 µM (inactive) | > 100 µM | 
Cc1nc(N2CCN(C(=O)c3ccco3)CC2)c2c3c(sc2n1)CCCC3 | > 100 µM (inactive) | > 100 µM | 
O=C(NCc1ccco1)c1sc(=S)n2c1[nH]c(=O)c1ccccc12 | > 100 µM (inactive) | > 100 µM | 
CN1C(=O)NC(c2ccccc2)C2=C1CN(c1cccc(C(F)(F)F)c1)C2=O (configuration not stated) | > 100 µM (inactive) | > 100 µM | 
COc1cccc(-c2nc(N3CCCCC3C)c3ccccc3n2)c1O (configuration not stated) | > 100 µM (inactive) | > 100 µM | 
Cn1c(SC2C(=O)CC(C)(C)CC2=O)nnc1-c1ccco1 | > 100 µM (inactive) | > 100 µM | 
CSc1ccccc1NC(=O)c1cc(-c2cccs2)on1 | > 100 µM (inactive) | > 100 µM | 
CCC(Sc1nc2sc(C(=O)OC)c(C)c2c(=O)n1N)C(=O)NCC1CCCO1 (configuration not stated) | > 100 µM (inactive) | > 100 µM | 
COc1ccccc1NC(=O)Cc1csc(N)n1 | > 100 µM (inactive) | > 100 µM | 
COC(=O)NC(=C(Cl)Cl)S(=O)(=O)c1ccccc1 | > 100 µM (inactive) | > 100 µM | 
CCn1cc(C(=O)NCC2CCCO2)c(=O)c2cc(S(=O)(=O)N3CCCCC3)ccc21 (configuration not stated) | > 100 µM (inactive) | > 100 µM | 
CN1C(=O)c2ccccc2Sc2ccc(C(=O)N3CCC4(CC3)OCCO4)cc21 | > 100 µM (inactive) | > 100 µM | 
CCOC(=O)C1CCN(c2ncnc3c2oc2ccccc23)CC1 | > 100 µM (inactive) | > 100 µM | 
Fc1ccc(Nc2nc(Oc3ccc4c(c3)OCO4)nc(N3CCOCC3)n2)c(F)c1 | > 100 µM (inactive) | > 100 µM | 
COc1ccc(S(=O)(=O)N2CCCCC2C(=O)O)cc1OC (configuration not stated) | > 100 µM (inactive) | > 100 µM | 
Cn1c(SCc2ccc(F)cc2)nnc1-c1cccs1 | > 100 µM (inactive) | > 100 µM | 
Oc1ccccc1C1=Nc2ncnn2C(c2ccc(F)cc2)C1 (configuration not stated) | > 100 µM (inactive) | > 100 µM | 
O=C(CCc1ccccc1)Nc1ccc(Cl)cn1 | > 100 µM (inactive) | > 100 µM | 
Cc1c(O)c(CN2CCCC2)cc2c1oc(=O)c1ccccc12 | > 100 µM (inactive) | > 100 µM | > 100 µM

Compound | IC50 | IC50 [1] | IC50 [2]
Cc1cc(C)cc(OCc2nnc(SCC(=O)N3CCN(c4ccccc4)CC3)o2)c1 | > 100 µM (inactive) | > 100 µM | 
COc1ccc(N/C=C(\C#N)c2nc3ccccc3n2C)c(OC)c1 | > 100 µM (inactive) | > 100 µM | 
CCCC1CC(C)(c2csc(Nc3ccc(OCC)cc3)n2)OC1=O (configuration not stated) | > 100 µM (inactive) | > 100 µM | 
Cc1nnc(NC2CCCCC2)[nH]c1=O | > 100 µM (inactive) | > 100 µM | 
CCOC(=O)COc1ccc(S(=O)(=O)NCc2ccco2)cc1 | > 100 µM (inactive) | > 100 µM | 
CCOC(=O)C1(C)/C(=N/Nc2ccccc2)C(=O)C(=O)N1c1ccccc1 (configuration not stated) | > 100 µM (inactive) | > 100 µM | 
Cc1ccc(SCc2cc(=O)[nH]c(N3CCN(Cc4ccc5c(c4)OCO5)CC3)n2)cc1 | > 100 µM (inactive) | > 100 µM | 
O=C(Nc1cccnc1)c1noc2c1CCCCC2 | inactive | > 100 µM | 97.3 µM
c1ccc(SCc2nc(-c3ccccn3)no2)cc1 | > 100 µM (inactive) | > 100 µM | 
COc1ccc(NC(=O)C(=O)NCCN2CCN(C(=O)c3cccs3)CC2)cc1 | > 100 µM (inactive) | > 100 µM | 
CC(=O)/C(C(=N)N1CCN(c2cccc(Cl)c2)CC1)=C(\C)O | > 100 µM (inactive) | > 100 µM | 
Cc1ccc(S(=O)(=O)N2CCOCC2)cc1C(=O)NCc1ccco1 | > 100 µM (inactive) | > 100 µM | 
CCCCN(C(=O)Cn1nnc2ccccc21)C(C(=O)NCCOC)c1ccccc1 (configuration not stated) | > 100 µM (inactive) | > 100 µM | 
CCOC(=O)CSC1=Nc2ccccc2C2=NC(CC(=O)NCc3ccccc3)C(=O)N12 (configuration not stated) | > 100 µM (inactive) | > 100 µM | 
O=C(O)c1ccc(CSc2n[nH]c(-c3ccco3)n2)cc1 | > 100 µM (inactive) | > 100 µM | 
CCOc1ccc(S(=O)(=O)N2CCC(C(N)=O)CC2)c2ccccc12 | > 100 µM (inactive) | > 100 µM | 
COc1ccc(OC)c(C2=Nn3c(nnc3-c3cccc(OC(C)C)c3)SC2)c1 | > 100 µM (inactive) | > 100 µM | 
O=c1c(Cl)c(NCCCO)cnn1-c1nc2ccccc2[nH]1 | inactive | 29.2 µM | 15.9 µM
C=CCOC(=O)C1=C(C)Nc2nc3ccccc3n2C1c1ccncc1 (configuration not stated) | > 100 µM (inactive) | > 100 µM | 
Cc1cc(=O)[nH]c(N=N/C(=N/Nc2ccc(O)cc2)c2ccccc2)n1 | inactive | > 100 µM | 45.2 µM

Compound | IC50 | IC50 [1] | IC50 [2]
Cc1cc(C(=O)Nc2ccccc2)oc1C | inactive | > 100 µM | 84.2 µM
COCCn1c(C)cc(C2=NNC(=Nc3ccccc3)SC2)c1C | > 100 µM (inactive) | > 100 µM | 
CCn1c(CNc2nc3ccccc3n2C(C)C)nc2ccccc21 | > 100 µM (inactive) | > 100 µM | 
COc1ccc(C(=O)COC(=O)CN2C(=O)NC(C)(C)C2=O)cc1OC | > 100 µM (inactive) | > 100 µM | 
Cc1nc(-c2cccc(S(=O)(=O)N3CC(C)CC(C)C3)c2)cs1 (configuration not stated) | > 100 µM (inactive) | > 100 µM | 
O=C(Nc1cccnc1)c1cc(-c2ccco2)on1 | > 100 µM (inactive) | > 100 µM | 
CN(C)c1nc(N(C)C)nc(N(C#N)CCOc2ccccc2)n1 | > 100 µM (inactive) | > 100 µM | 
O=C(NCc1ccc(F)cc1)c1c(O)c2cccc3c2n(c1=O)CCC3 | > 100 µM (inactive) | > 100 µM | 
CCCCNC(=O)OC1CCS(=O)(=O)C1 (configuration not stated) | > 100 µM (inactive) | > 100 µM | 
CC(=O)NC(CCS(C)(=O)=O)C(=O)Nc1ccccc1Cl (configuration not stated) | > 100 µM (inactive) | > 100 µM | 
CCCn1nnc(NC(=O)C(c2ccccc2)c2ccccc2)n1 | > 100 µM (inactive) | > 100 µM | 
CN1CCN(CCC(=O)Nc2ccc3c(c2)OCO3)CC1 | > 100 µM (inactive) | > 100 µM | 
CC(C)CC[n+]1ccn(-c2nc3ccccc3nc2[N-]S(=O)(=O)c2ccccc2)c1 | > 100 µM (inactive) | > 100 µM | 
CC(C)NC(=O)CCNS(=O)(=O)c1ccc(Br)cc1 | > 100 µM (inactive) | 24.2 µM | > 100 µM
Cn1c(/C(C#N)=C(\O)CN2CCN(Cc3ccccc3)CC2)nc2ccccc21 | > 100 µM (inactive) | > 100 µM | 
O=C(O)c1cc2c(ccc3ccccc32)[nH]1 | > 100 µM (inactive) | > 100 µM | 
N#Cc1c(/N=C/c2cc(Br)cs2)sc2c1CCC2 | > 100 µM (inactive) | > 100 µM | 
Cc1cccc(N2C(=O)C3C4C=CC(C4)C3C2=O)c1 (configuration not stated) | > 100 µM (inactive) | > 100 µM | 
